Experimental findings from patent US6031084A, “Azoamide compound” (Wako Pure Chemical Industries, Ltd., priority 1998, dated 2000) are described below.

Molecules are shown by their SMILES.

Data set [1] is described as follows: Measurement of Solubility in various kinds of polar solvents. The class given is physicochemical. The conditions noted are these: for Solubility in 2-butanol: solvent: 2-butanol; for Solubility in Acetone: solvent: Acetone; for Solubility in Methanol: solvent: Methanol; for Solubility in Tetrahydrofuran: solvent: Tetrahydrofuran; for Solubility in Water: solvent: Water. As for the experimental part:
Solubilities of 2,2'-azobis[N-(butanol-2-yl)-2-methylpropionamide] (hereinafter abbreviated as Present compound 1) obtained by Example 1 and 2,2'-azobis[N-(propanol-2-yl)-2-methylpropionamide] (hereinafter abbreviated as Present compound 2) obtained by Example 2 to various kinds of polar solvent was measured.
The same measurement of solubility as Experiment 1 was conducted except for using of 2,2'-azobis[2-methyl-N-(2-hydroxyethyl)-propionamide] [drawing 9] (hereinafter abbreviated as Known compound 1), 2,2'-azobis {2-methyl-N-[1,1-bis(hydroxymethyl)-2-hydroxyethyl] propionamide} [drawing 10] (hereinafter abbreviated as Known compound 2) and 2,2'-azobis {2-methyl-N-[1,1-bis(hydroxymethyl)ethyl] propionamide} [drawing 11] (hereinafter abbreviated as Known compound 3) in place of Present compound 1.

Data set [2] is described as follows: 10 hours half life temperature (thermal decomposition). The class given is physicochemical.

For the compound `CC(CO)NC(=O)C(C)(C)N=NC(C)(C)C(=O)NC(C)CO` (racemic) [Present compound 2, 2,2'-azobis[N-(propanol-2-yl)-2-methylpropionamide]], in data set [1], the “Solubility in a various kind of polar solvents compared with Known compounds 1, 2 and 3 (in words)” value is reported as “remarkably higher”; the “Solubility in rather low polar solvents such as 2-butanol (in words)” value is listed as “soluble”; the “Solubility in 2-butanol” value is below 0.l; the “Solubility in Acetone” value is 0.3 g. Further, in data set [1], the “Solubility in Methanol” value turned out to be 6.5 g, the “Solubility in Tetrahydrofuran” value came out at 0.3 g and the “Solubility in Water” value is reported as 0.6 g. The “10 hours half life temperature” value in data set [2] was 83.1 °C.
For the compound `CC(C)(N=NC(C)(C)C(=O)NCCO)C(=O)NCCO` [Known compound 1, 2,2'-azobis[2-methyl-N-(2-hydroxyethyl)-propionamide]], in data set [1], the “Solubility in 2-butanol” value is on record as “insoluble”, the “Solubility in Acetone” value is listed as “insoluble”, the “Solubility in Methanol” value is recorded as 4.55 g and the “Solubility in Tetrahydrofuran” value is listed as “insoluble”. In data set [1], the “Solubility in Water” value worked out at 2.4 g.
Regarding `CC(C)(N=NC(C)(C)C(=O)NC(CO)(CO)CO)C(=O)NC(CO)(CO)CO` [Known compound 2, 2,2'-azobis {2-methyl-N-[1,1-bis(hydroxymethyl)-2-hydroxyethyl]propionamide}], in data set [1], the “Solubility in 2-butanol” value is reported as “insoluble”, the “Solubility in Acetone” value is “insoluble”, the “Solubility in Methanol” value amounted to 1.89 g and the “Solubility in Tetrahydrofuran” value is given as “insoluble”. Besides, the “Solubility in Water” value in data set [1] stood at 2.0 g.
For the compound `CC(CO)(CO)NC(=O)C(C)(C)N=NC(C)(C)C(=O)NC(C)(CO)CO` [Known compound 3, 2,2'-azobis {2-methyl-N-[1,1-bis(hydroxymethyl)ethyl]propionamide}], in data set [1], the “Solubility in 2-butanol” value is on record as “insoluble”, the “Solubility in Acetone” value is listed as “insoluble”, the “Solubility in Methanol” value worked out at 5.18 g and the “Solubility in Tetrahydrofuran” value is “insoluble”. The “Solubility in Water” value in data set [1] is reported as 0.6 g.
Regarding `CC[C@H](CO)NC(=O)C(C)(C)N=NC(C)(C)C(=O)N[C@H](CC)CO` [Present compound 1, 2,2'-azobis[N-(butanol-2-yl)-2-methylpropionamide]], in data set [1], the “Solubility in a various kind of polar solvents compared with Known compounds 1, 2 and 3 (in words)” value is reported as “remarkably higher”; the “Solubility in rather low polar solvents such as 2-butanol (in words)” value was “soluble”; the “Solubility in 2-butanol” value is above 10 g; the “Solubility in Acetone” value is listed as above 10 g. Moreover, in data set [1], the “Solubility in Methanol” value was above 10 g, the “Solubility in Tetrahydrofuran” value is listed as above 10 g and the “Solubility in Water” value is above 10 g. Moreover, the “10 hours half life temperature” value in data set [2] turned out to be 84.7 °C.
